According to patent publication US7799795B2, “Aryl nitrile compounds and compositions and their uses in treating inflammatory and related disorders” (Amgen Inc., priority 2005, dated 2010):
Like-named read-outs stand apart in the source and are kept apart here.

Assays:
CXCR3 [1] = target: T1, CXCR3 (Homo sapiens, UniProt P49682); test: CXCR3 binding assay in binding buffer (125I-labelled chemokine, CXCR3-expressing cells); conditions: absence of human plasma
T1 construct: ChemoCentryx
T1 sequence (P49682 1-368): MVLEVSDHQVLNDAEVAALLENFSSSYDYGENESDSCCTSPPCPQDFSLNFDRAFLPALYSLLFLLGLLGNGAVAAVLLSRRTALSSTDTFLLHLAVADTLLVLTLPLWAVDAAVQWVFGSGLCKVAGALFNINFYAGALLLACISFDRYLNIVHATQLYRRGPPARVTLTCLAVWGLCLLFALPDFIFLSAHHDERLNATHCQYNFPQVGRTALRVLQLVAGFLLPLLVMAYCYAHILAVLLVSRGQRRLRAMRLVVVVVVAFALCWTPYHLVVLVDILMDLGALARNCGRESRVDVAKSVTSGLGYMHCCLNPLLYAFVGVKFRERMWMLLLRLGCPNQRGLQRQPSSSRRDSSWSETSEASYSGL
Description: (§1) CXCR3 Binding Assay: CXCR3 binding assays were conducted as previously described (see, e.g., Example 12 in WO 02/083143, incorporated herein by reference in its entirety), in the absence (“binding buffer”) or presence of human plasma. Unless otherwise noted, all reagents used are available from commercial sources (e.g., Sigma-Aldrich, St. Louis, Mo., USA). Test compounds are diluted in DMSO to a concentration that is 40-times the intended final assay concentration; 5 μL are transferred to each well of a 96-well flat-bottomed polypropylene plate (e.g., from Greiner, Inc.). CXCR3-expressing cells obtained from ChemoCentryx were used in the assays to generate the data set forth below. The cells were resuspended in assay buffer (25 mM Hepes, 80 mM NaCl, 1 mM CaCl2, 5 mM MgCl2, 0.2% bovine serum albumin, pH 7.1, stored at 4° C.) at 5 million cells per mL; 100 μL of this cell suspension is then transferred to each well of a 96-well plate containing the diluted test compounds. ^125I-labelled chemokine (purchased from commercial sources, e.g., Amersham, PE Life Sciences) is diluted in assay buffer to a concentration of approximately […]; 100 μL of this chemokine solution is transferred to each well of a 96-well plate containing compounds and cell suspension. The plates are sealed with commercially available foil plate seals (e.g., from E&K Scientific), and stored at 4° C. for a period of 2 to 4 h, shaking gently. At the end of this incubation period, the contents of the assay plates are transferred to GF/B filter plates (Packard) that have been pre-coated by dipping into a solution containing 0.3% polyethyleneimine (Sigma-Aldrich), using a cell harvester (Packard), and washing twice with wash buffer (25 mM Hepes, 500 mM NaCl, 1 mM CaCl2, 5 mM MgCl2, pH 7.1, stored at room temperature). The filter plates are sealed on the bottom with plate seals (Packard), 50 μL of Microscint-20 scintillation fluid (Packard) is added to each well, and the top of the plates are sealed with clear plastic (TopSeal A, Packard). The plates are counted on a scintillation counter, such as a Packard TopCount. To measure non-specific binding, 4 wells containing unlabelled “cold” chemokine were included on each 96-well plate. To measure maximum binding, 4 wells containing 5 μL of DMSO, 100 μL of cell suspension and 100 μL of ^125I-labelled chemokine solution were included on each 96-well plate. Data were analyzed using commercially available software (e.g., Excel from Microsoft, Prism from GraphPad Software Inc.).

CXCR3 [2] = target: T1, CXCR3; test: CXCR3 binding assay in presence of human plasma
Description: as §1

[3] = system: Human peripheral blood mononuclear cells (PBMCs); test: I-TAC migration assay; format: cell-based; conditions: PBMC; activated human PBMCs, human ITAC, in human plasma
Description: I-TAC migration assay: Human peripheral blood mononuclear cells (PBMCs) were activated with OKT3 (purified by AB solutions from hybridoma cell line OKT3 (ATCC CRL-8001)) and IL-2 (Peprotech, Inc., Rocky Hill, N.J., USA). After fourteen days, the cells were loaded with chloromethyl-fluoroscein-diacetate (CMFDA) (Molecular Probes, Inc.) by incubating the activated PBMCs in 1 ng/mL CMFDA for >1.5 hours at 37° C. in a tissue culture incubator. While cells were loading, the test compounds were diluted in DMSO to a concentration that is 100-times the intended final assay concentration. Next, 100 ng/mL of human ITAC (Peprotech) in human plasma (EDTA, drug free, Biological Specialty Corp) was prepared. Test compounds were added to the human ITAC preparation. Cells were washed once in prewarmed (37° C.) RPMI (Invitrogen) media with 0.5% BSA and resuspended to 5 million cells/ml in human plasma. The test compounds were added to the PBMCs. A 96-well chemotaxis migration plate (NeuroProbe, Inc.) was assembled by adding, per well, 30 uL of ITAC/compound mixture in the lower chamber, placing the […] membrane on top of the ITAC/compound well, and adding 50 uL of the PBMC/compound mixture to the well. The plates were covered and incubated in a humidified tissue culture incubator for 2.5 hours. A standard curve of CMFDA-loaded cells to be used as a reference for the test plates was prepared. Migration plates were disassembled and are read in a fluorometric plate reader set to 475 nm absorbance, 517 nm emission. The fluorometric reading was converted to cell number using the standard curve and calculating the percentage of migrating cells.

CYP3A4 [4] = test: Time dependent CYP inhibition assay (midazolam, pooled human liver microsomes); conditions: preincubation with NADPH, midazolam marker substrate
Description: (§3) CYP Inhibition Assay: Time dependent CYP inhibition assays were initiated by incubating a test compound in 0.1 mM phosphate buffer containing pooled human liver microsomes (1 mg/mL protein) in the presence of NADPH for 0, 15 and 30 minutes. At each time point, an aliquot of the preincubation mixture was removed and added to 0.1 mM phosphate buffer containing marker substrate (midazolam) and fresh NADPH. The residual CYP activity, after the preincubation times of 0, 15, and 30 minutes, was monitored for 5 minutes. Data are expressed as the % 1-OH midazolam formation at 15 minutes compared to that formed at 0 minutes. […] DMSO (vehicle control) caused an approximate 10% drop in CYP activity over 15 minutes.

Rat PK PO = format: in vivo; conditions: Sprague-Dawley, plasma; for bioavailability: read-out: Rat PK PO F %
Description: In Vivo Metabolic Evaluation in Rat: To study the metabolic fate of test compounds in vivo, Sprague-Dawley (SD) rats were administered (orally gavage) test compound in suspension. Blood samples (˜0.3 mL/timepoint) were collected at 1, 2, 4, 8, 24, 30 and 48 hours post-dose into EDTA containing tubes. All blood samples were collected via tail artery venipuncture under isofluorane anesthesia. Blood samples were processed for plasma by centrifugation and stored frozen until analysis (−20° to −70° C.). Samples were analyzed using a sensitive and selective LC/MS/MS method. Briefly, samples were prepared for analysis using protein precipitation. An aliquot of the resulting supernatant was subjected to LC/MS/MS analysis. Separation of the analytes from endogenous material was achieved using an reverse phase HPLC. Column effluent was monitored using a Sciex API 365 triple quadrapole mass spectrometer with a Sciex TurboIon Spray probe. Unknown concentrations of testing articles were determined using a calibration curve from 1 to 2000 ng/mL.
(§2) Pharmacokinetics of exemplary compounds of the invention was assessed in rats.

Rat PK (IV) = conditions: in vivo
Description: as §2

CYP3A4 [5] = conditions: microsomes
Description: as §3

Question: With `CCOc1ccc(-n2c([C@@H](C)N(CCS(=O)(=O)CC)C(=O)Cc3ccc(F)c(C(F)(F)F)c3)nc3ncccc3c2=O)cc1` as the compound, how does the IC50 (CXCR3 [1]) read?
Answer: 1 nM

Question: And the IC50 (CXCR3 [2])?
Answer: 7 nM

Question: And the IC50 [3]?
Answer: 22 nM

Question: Which “Time Dependent CYP3A4 Inhibition” value (CYP3A4 [4]) does the source give for `CCS(=O)(=O)CCN(C(=O)Cc1ccc(F)c(C(F)(F)F)c1)[C@H](C)c1nc2ncccc2c(=O)n1-c1ccc(O)cc1` here?
Answer: Yes

Question: Which results are given for `CCOc1ccc(-c2c([C@@H](C)N(CCS(=O)(=O)CC)C(=O)Cc3ccc(F)c(C(F)(F)F)c3)nc3ccccn3c2=O)cc1`?
Answer: IC50 (CXCR3 [1]): 1 nM; IC50 (CXCR3 [2]): 57 nM; IC50 [3]: 183 nM

Question: With `CCS(=O)(=O)CCN(C(=O)Cc1ccc(F)c(C(F)(F)F)c1)[C@H](C)c1nc2ccccn2c(=O)c1-c1ccc(O)cc1` as the compound, how does the IC50 (CXCR3 [1]) read?
Answer: 816 nM

Question: What about the “Time Dependent CYP3A4 Inhibition” value (CYP3A4 [4]) of the same compound?
Answer: Yes

Question: And the IC50 (CXCR3 [2])?
Answer: 4080 nM

Question: Which IC50 [3] does the source give for `CCS(=O)(=O)CCN(C(=O)Cc1ccc(F)c(C(F)(F)F)c1)[C@H](C)c1nc2ccccn2c(=O)c1-c1ccc(C#N)cc1` here?
Answer: 41 nM

Question: For `CCOc1ccc(-c2c([C@@H](C)N(CCS(=O)(=O)CC)C(=O)Cc3ccc(F)c(C(F)(F)F)c3)nc3ncccn23)cc1`, which IC50 (CXCR3 [1]) is on record?
Answer: 4 nM

Question: What about the IC50 (CXCR3 [2]) of the same compound?
Answer: 70 nM

Question: And the IC50 [3]?
Answer: 1500 nM

Question: Which results are given for `CCS(=O)(=O)CCN(C(=O)Cc1ccc(F)c(C(F)(F)F)c1)[C@H](C)c1nc2ncccn2c1-c1ccc(O)cc1`?
Answer: IC50 (CXCR3 [1]): 10000 nM; Time Dependent CYP3A4 Inhibition (CYP3A4 [4]): Yes; IC50 (CXCR3 [2]): 10000 nM

Question: What does the source list for `CCS(=O)(=O)CCN(C(=O)Cc1ccc(F)c(C(F)(F)F)c1)[C@H](C)c1nc2ncccn2c1-c1ccc(C#N)cc1`?
Answer: IC50 (CXCR3 [1]): 10 nM; IC50 (CXCR3 [2]): 49 nM; IC50 [3]: 83 nM

Question: With `CCS(=O)(=O)CCN(C(=O)Cc1ccc(C(F)(F)F)c(F)c1)[C@H](C)c1nc2ncccn2c(=O)c1-c1ccc(C#N)cc1` as the compound, how does the MRT (Rat PK PO) read?
Answer: 3.96 h

Question: And the bioavailability (Rat PK PO)?
Answer: 24%

Question: And the Vd (Rat PK (IV); read-out: Rat PK(IV) Vdss)?
Answer: 0.31 L/kg

Question: Which results are given for `CCS(=O)(=O)CCN(C(=O)Cc1ccc(F)c(C(F)(F)F)c1)[C@H](C)c1nc2ncccc2c(=O)n1-c1ccc(C#N)cc1` [drawing 192]?
Answer: Time Dependent CYP3A4 Inhibition (CYP3A4 [5]): NO; IC50 [3]: 120 nM

Question: Which results are given for `CCS(=O)(=O)CCN(C(=O)Cc1ccc(F)c(C(F)(F)F)c1)[C@H](C)c1nc2ncccc2c(=O)n1-c1ccc(C#N)cc1` [drawing 199]?
Answer: MRT (Rat PK PO): 1.5 h; bioavailability (Rat PK PO): 47.2%; clearance (Rat PK (IV); read-out: Rat PK(IV) Cl (converted)): 39.7 mL/min/kg
